Legend:
c-KIT = c-KIT (Homo sapiens, UniProt P10721); test: Kinase panel profiling; assay type: biochemical; design: purchased Reaction Biology Corp; settings: 10 μM ATP
Experimental: Kinase panel profiling was conducted by Reaction Biology Corp. (San Diego, CA, USA). A single dose (1.0 μM) of 6r was tested against 371 recombinant human kinases in the presence of 10 μM ATP.

c-KIT D816V Ba/F3 cells = test: Cell cycle arrest analysis (PI flow cytometry); assay type: cell-based; settings: c-KIT D816V Ba/F3, 0.5 μM, 24 h

Sequence of c-KIT (P10721 26-976): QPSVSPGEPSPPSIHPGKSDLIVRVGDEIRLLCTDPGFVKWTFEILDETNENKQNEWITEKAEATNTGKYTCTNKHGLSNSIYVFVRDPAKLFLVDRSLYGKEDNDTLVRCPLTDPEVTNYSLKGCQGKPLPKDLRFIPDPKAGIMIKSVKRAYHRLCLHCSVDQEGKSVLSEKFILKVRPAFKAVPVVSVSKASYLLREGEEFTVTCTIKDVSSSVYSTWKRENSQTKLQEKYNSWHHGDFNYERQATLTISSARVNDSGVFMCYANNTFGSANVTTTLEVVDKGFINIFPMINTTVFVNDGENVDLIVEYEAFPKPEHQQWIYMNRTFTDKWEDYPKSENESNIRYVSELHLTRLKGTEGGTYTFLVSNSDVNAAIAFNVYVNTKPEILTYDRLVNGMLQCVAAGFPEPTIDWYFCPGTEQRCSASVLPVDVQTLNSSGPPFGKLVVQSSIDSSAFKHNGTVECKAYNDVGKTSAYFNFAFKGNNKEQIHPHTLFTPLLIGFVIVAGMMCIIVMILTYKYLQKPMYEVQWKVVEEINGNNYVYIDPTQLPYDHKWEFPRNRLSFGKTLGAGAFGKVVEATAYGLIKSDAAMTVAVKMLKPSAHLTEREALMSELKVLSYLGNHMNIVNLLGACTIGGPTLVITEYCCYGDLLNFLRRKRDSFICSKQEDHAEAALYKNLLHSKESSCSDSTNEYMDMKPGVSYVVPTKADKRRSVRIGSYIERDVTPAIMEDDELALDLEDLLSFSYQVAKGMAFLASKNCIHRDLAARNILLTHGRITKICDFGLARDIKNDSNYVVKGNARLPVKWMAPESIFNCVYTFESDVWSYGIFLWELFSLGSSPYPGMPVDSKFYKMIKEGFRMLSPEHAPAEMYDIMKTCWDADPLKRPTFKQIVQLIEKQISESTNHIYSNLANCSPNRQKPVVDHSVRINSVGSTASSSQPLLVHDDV

With Cc1ccc(NC(=O)c2ccc(CN3CCN(C)CC3)c(C(F)(F)F)c2)cc1-c1cnc2sc(N)nc2c1 [6r] the inhibition at 1 µM (c-KIT) was 98.7% and the “G0/G1 arrest compared with imatinib” value (c-KIT D816V Ba/F3 cells) was “more strongly”.

— paper PMC9817970 (Cancers, 2022)
